Tests used:
Assay in all cases: competitive isoTOP-ABPP
Type in all cases: binding
[1] = target: T1, EEF2 Elongation factor 2 (Homo sapiens, UniProt P13639); conditions: for isoTOP-ABPP reactivity ratio at lysine P13639_K235 / isoTOP-ABPP reactivity ratio at lysine P13639_K318: 231 sol
T1 construct: isoTOP-ABPP experiments performed in cell lysates (in vitro); endogenous in cells; host or cells: soluble proteome of human cancer cell lines (MDA-MB-231; Ramos and Jurkat also prepared)
Outline: (§1)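 Here, isoTOP-ABPP measures loss of STP-alkyne labeling at individual lysines after fragment exposure in lysate. Activated esters are dosed at 50 μM, guanidinylating agents at 100 μM; the probe follows at 0.1 mM for 1 h. R ≥4 marks a liganded lysine.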

[2] = target: T2, MTOR Serine/threonine-protein kinase mTOR (Homo sapiens, UniProt P42345); conditions: for isoTOP-ABPP reactivity ratio at lysine P42345_K2066: 231 sol
T2 construct: isoTOP-ABPP experiments performed in cell lysates (in vitro); endogenous in cells; host or cells: soluble proteome of human cancer cell lines (MDA-MB-231; Ramos and Jurkat also prepared)
Outline: as §1

[3] = target: T3, RINT1 RAD50-interacting protein 1 (Homo sapiens, UniProt Q6NUQ1); conditions: for isoTOP-ABPP ratio (R) at liganded lysine Q6NUQ1_K771 / isoTOP-ABPP reactivity ratio at lysine Q6NUQ1_K771: 50 uM, in vitro; for isoTOP-ABPP ratio (R) at liganded lysine Q6NUQ1_K771: sol, 231; for isoTOP-ABPP reactivity ratio at lysine Q6NUQ1_K771: 231 sol
T3 construct: isoTOP-ABPP experiments performed in cell lysates (in vitro); endogenous in cells; host or cells: soluble proteome of human cancer cell lines (MDA-MB-231; Ramos and Jurkat also prepared)
T3 sequence (Q6NUQ1 whole entry): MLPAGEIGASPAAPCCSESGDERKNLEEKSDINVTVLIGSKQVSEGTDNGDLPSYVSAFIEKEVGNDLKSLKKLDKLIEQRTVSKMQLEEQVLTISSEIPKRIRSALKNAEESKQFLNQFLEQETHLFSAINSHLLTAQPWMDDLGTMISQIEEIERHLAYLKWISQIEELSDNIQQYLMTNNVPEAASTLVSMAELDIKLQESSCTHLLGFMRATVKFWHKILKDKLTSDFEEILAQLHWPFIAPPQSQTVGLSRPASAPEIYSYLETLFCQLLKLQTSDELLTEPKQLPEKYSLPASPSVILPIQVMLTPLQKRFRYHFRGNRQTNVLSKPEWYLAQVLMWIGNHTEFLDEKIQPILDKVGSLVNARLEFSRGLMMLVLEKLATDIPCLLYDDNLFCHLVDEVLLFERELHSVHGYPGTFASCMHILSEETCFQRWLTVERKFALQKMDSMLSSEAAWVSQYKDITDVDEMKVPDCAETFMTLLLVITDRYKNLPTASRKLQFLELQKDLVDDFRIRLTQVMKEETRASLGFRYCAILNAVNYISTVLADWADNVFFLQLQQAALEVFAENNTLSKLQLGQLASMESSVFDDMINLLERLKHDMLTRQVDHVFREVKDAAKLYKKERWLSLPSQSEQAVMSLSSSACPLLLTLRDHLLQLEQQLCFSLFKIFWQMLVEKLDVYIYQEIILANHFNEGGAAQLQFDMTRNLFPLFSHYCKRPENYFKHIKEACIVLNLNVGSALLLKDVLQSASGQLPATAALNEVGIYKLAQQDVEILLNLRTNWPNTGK
Outline: as §1

[4] = target: T4, XRCC6 X-ray repair cross-complementing protein 6 (Homo sapiens, UniProt P12956); conditions: for isoTOP-ABPP ratio (R) at liganded lysine P12956_K351 / isoTOP-ABPP reactivity ratio at lysine P12956_K351: 50 uM, in vitro; for isoTOP-ABPP ratio (R) at liganded lysine P12956_K351: sol, 231; for isoTOP-ABPP reactivity ratio at lysine P12956_K351: 231 sol
T4 construct: isoTOP-ABPP experiments performed in cell lysates (in vitro); endogenous in cells; host or cells: soluble proteome of human cancer cell lines (MDA-MB-231; Ramos and Jurkat also prepared)
T4 sequence (P12956 2-609 limits assumed): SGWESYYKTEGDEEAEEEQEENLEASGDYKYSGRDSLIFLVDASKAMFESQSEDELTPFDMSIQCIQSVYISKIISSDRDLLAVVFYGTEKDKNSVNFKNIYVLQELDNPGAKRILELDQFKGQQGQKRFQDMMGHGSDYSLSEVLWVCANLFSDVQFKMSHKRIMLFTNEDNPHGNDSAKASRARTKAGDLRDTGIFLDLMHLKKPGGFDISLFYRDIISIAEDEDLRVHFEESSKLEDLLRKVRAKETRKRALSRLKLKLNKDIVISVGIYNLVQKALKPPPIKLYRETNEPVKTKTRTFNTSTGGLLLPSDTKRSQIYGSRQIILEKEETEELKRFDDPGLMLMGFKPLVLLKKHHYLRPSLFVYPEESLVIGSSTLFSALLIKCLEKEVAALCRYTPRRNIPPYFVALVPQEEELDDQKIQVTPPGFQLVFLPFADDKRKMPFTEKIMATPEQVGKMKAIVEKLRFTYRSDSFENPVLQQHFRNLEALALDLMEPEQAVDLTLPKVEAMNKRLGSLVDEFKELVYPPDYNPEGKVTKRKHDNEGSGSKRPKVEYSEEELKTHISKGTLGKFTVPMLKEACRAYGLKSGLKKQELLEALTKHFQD
T4 sequence (P13010 2-732 partner limits assumed): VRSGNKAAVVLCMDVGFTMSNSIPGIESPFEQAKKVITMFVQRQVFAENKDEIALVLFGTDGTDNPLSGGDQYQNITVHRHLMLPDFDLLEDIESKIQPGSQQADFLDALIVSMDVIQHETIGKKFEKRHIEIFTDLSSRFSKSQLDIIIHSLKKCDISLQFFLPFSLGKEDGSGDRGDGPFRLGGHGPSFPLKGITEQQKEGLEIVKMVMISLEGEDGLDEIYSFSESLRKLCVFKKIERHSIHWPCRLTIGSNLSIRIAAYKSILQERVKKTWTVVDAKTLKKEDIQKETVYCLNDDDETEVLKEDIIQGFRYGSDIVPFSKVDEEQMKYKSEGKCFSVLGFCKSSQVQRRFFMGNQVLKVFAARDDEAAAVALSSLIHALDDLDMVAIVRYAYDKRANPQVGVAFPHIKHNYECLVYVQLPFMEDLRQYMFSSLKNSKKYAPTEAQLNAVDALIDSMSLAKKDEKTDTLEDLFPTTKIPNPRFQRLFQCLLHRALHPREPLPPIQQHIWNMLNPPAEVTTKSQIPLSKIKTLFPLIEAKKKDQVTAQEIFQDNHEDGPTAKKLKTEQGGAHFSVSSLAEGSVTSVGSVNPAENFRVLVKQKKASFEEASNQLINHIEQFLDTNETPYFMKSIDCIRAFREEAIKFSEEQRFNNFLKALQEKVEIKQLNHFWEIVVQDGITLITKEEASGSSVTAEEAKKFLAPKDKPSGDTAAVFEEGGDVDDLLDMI
Outline: as §1

[5] = target: T5, KPNA2 Importin subunit alpha-2 (Homo sapiens, UniProt P52292); conditions: for isoTOP-ABPP ratio (R) at liganded lysine P52292_K459 / isoTOP-ABPP reactivity ratio at lysine P52292_K459: 50 uM, in vitro; for isoTOP-ABPP ratio (R) at liganded lysine P52292_K459: sol, 231; for isoTOP-ABPP reactivity ratio at lysine P52292_K459: 231 sol
T5 construct: isoTOP-ABPP experiments performed in cell lysates (in vitro); endogenous in cells; host or cells: soluble proteome of human cancer cell lines (MDA-MB-231, Ramos, Jurkat)
Outline: as §1

[6] = target: T6, PFKL 6-phosphofructokinase, liver type (Homo sapiens, UniProt P17858); conditions: for isoTOP-ABPP ratio (R) at liganded lysine P17858_K677 / isoTOP-ABPP ratio (R) at liganded lysine P17858_K715 / isoTOP-ABPP reactivity ratio at lysine P17858_K315 / isoTOP-ABPP reactivity ratio at lysine P17858_K677 / isoTOP-ABPP reactivity ratio at lysine P17858_K715: 50 uM, in vitro; for isoTOP-ABPP ratio (R) at liganded lysine P17858_K677 / isoTOP-ABPP ratio (R) at liganded lysine P17858_K715: sol, 231; for isoTOP-ABPP reactivity ratio at lysine P17858_K315 / isoTOP-ABPP reactivity ratio at lysine P17858_K677 / isoTOP-ABPP reactivity ratio at lysine P17858_K715: 231 sol
T6 construct: isoTOP-ABPP experiments performed in cell lysates (in vitro); endogenous in cells; host or cells: soluble proteome of human cancer cell lines (MDA-MB-231; Ramos and Jurkat also prepared)
T6 sequence (P17858 1-780): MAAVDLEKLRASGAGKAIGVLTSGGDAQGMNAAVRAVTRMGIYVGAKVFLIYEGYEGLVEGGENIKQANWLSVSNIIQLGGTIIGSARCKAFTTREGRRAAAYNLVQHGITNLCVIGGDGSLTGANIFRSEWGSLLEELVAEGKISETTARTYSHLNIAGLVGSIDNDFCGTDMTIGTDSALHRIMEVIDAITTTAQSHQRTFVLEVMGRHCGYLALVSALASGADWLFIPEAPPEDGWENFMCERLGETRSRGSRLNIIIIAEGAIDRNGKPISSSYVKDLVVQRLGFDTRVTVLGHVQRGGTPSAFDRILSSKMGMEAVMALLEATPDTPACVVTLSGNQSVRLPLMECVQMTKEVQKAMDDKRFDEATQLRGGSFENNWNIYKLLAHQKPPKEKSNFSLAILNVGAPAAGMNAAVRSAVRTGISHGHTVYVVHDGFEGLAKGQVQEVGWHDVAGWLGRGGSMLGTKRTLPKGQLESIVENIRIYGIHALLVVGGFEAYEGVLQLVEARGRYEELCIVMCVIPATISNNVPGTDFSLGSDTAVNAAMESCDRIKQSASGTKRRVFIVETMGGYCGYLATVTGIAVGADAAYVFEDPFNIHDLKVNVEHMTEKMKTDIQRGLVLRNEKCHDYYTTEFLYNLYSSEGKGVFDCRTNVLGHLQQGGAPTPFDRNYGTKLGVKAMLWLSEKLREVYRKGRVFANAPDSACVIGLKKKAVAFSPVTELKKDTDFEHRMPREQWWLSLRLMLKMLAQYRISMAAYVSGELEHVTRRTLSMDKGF
Outline: as §1

| isoTOP-ABPP reactivity ratio at lysine P13639_K235 ([1]; 50 uM, in vitro) | isoTOP-ABPP reactivity ratio at lysine P13639_K318 ([1]; 50 uM, in vitro) | isoTOP-ABPP reactivity ratio at lysine P42345_K2066 ([2]; 50 uM, in vitro) | isoTOP-ABPP reactivity ratio at lysine Q6NUQ1_K771 [3] | isoTOP-ABPP reactivity ratio at lysine P12956_K351 [4] | isoTOP-ABPP reactivity ratio at lysine P52292_K459 [5] | isoTOP-ABPP reactivity ratio at lysine P17858_K677 [6] | isoTOP-ABPP reactivity ratio at lysine P17858_K715 [6] | Compound | other results |
| --- | --- | --- | --- | --- | --- | --- | --- | --- | --- |
|  |  |  |  |  |  |  |  | O=C(Oc1ccc([N+](=O)[O-])cc1[N+](=O)[O-])C1CCN(C(=O)OCc2ccccc2)CC1 [fragment 34, 1-Benzyl 4-(2,4-dinitrophenyl) piperidine-1,4-dicarboxylate] | isoTOP-ABPP ratio (R) at liganded lysine P13639_K235 ([1]; 50 uM, in vitro, sol, 231): 1.0; isoTOP-ABPP ratio (R) at liganded lysine P42345_K2066 ([2]; 50 uM, in vitro, sol, 231): 1.1; isoTOP-ABPP ratio (R) at liganded lysine Q6NUQ1_K771 [3]: 1.3; isoTOP-ABPP ratio (R) at liganded lysine P12956_K351 [4]: 1.6; isoTOP-ABPP ratio (R) at liganded lysine P52292_K459 [5]: 1.0; isoTOP-ABPP ratio (R) at liganded lysine P17858_K677 [6]: 2.8; isoTOP-ABPP ratio (R) at liganded lysine P17858_K715 [6]: 1.3 |
| 1.3 | 1.1 | 2.8 | 0.9 | 2.1 | 8.2 | 20.0 | 1.5 | O=C(CCc1coc2cc(F)ccc2c1=O)Oc1c(F)c(F)c(F)c(F)c1F [fragment 26, Pentafluorophenyl 3-(7-fluoro-4-oxo-4H-chromen-3-yl)propanoate] |  |
|  |  |  |  |  |  |  |  | NC(=O)c1cc(C(F)(F)F)cc(C(F)(F)F)c1 [fragment 51, reference compound] | isoTOP-ABPP ratio, lysine P13639_K235 ([1]; 50 uM_231_sol_in vitro): 0.9; isoTOP-ABPP ratio, lysine P13639_K318 ([1]; 50 uM_231_sol_in vitro): 0.9; isoTOP-ABPP ratio, lysine P42345_K2066 ([2]; 50 uM_231_sol_in vitro): 0.8; isoTOP-ABPP ratio, lysine Q6NUQ1_K771 ([3]; 50 uM_231_sol_in vitro): 0.9; isoTOP-ABPP ratio, lysine P12956_K351 ([4]; 50 uM_231_sol_in vitro): 0.8; isoTOP-ABPP ratio, lysine P52292_K459 ([5]; 50 uM_231_sol_in vitro): 0.9; isoTOP-ABPP ratio, lysine P17858_K677 ([6]; 50 uM_231_sol_in vitro, possible other lysine P17858_K681): 0.9; isoTOP-ABPP ratio, lysine P17858_K715 ([6]; 50 uM_231_sol_in vitro, possible other lysine P17858_K714): 0.9 |
| 5.7 |  | 2.5 | 1.1 | 3.1 | 1.3 | 18.1 | 1.3 | O=C(CN1C(=O)c2ccccc2C1=O)Oc1c(F)c(F)c(F)c(F)c1F [fragment 27, Pentafluorophenyl 2-(1,3-dioxoisoindolin-2-yl)acetate] |  |
| 1.9 | 2.3 |  | 1.4 | 1.6 | 1.3 | 1.6 | 1.3 | O=C(Oc1c(F)c(F)c(F)c(F)c1F)c1ccc2ccccc2n1 [fragment 25, Pentafluorophenyl quinoline-2-carboxylate] | isoTOP-ABPP reactivity ratio at lysine P17858_K315 [6]: 0.9 |
|  |  |  |  |  |  |  |  | O=C(Oc1ccc([N+](=O)[O-])cc1[N+](=O)[O-])c1ccc(Oc2ccccc2)cc1 [fragment 39, 2,4-Dinitrophenyl 4-phenoxybenzoate] | isoTOP-ABPP ratio (R) at liganded lysine P13639_K235 ([1]; 50 uM, in vitro, sol, 231): 0.9; isoTOP-ABPP ratio (R) at liganded lysine P13639_K318 ([1]; 50 uM, in vitro, sol, 231): 0.9; isoTOP-ABPP ratio (R) at liganded lysine Q6NUQ1_K771 [3]: 1.5; isoTOP-ABPP ratio (R) at liganded lysine P12956_K351 [4]: 1.6; isoTOP-ABPP ratio (R) at liganded lysine P52292_K459 [5]: 1.0; isoTOP-ABPP ratio (R) at liganded lysine P17858_K677 [6]: 1.3; isoTOP-ABPP ratio (R) at liganded lysine P17858_K715 [6]: 0.6 |

| Compound | isoTOP-ABPP reactivity ratio at lysine P13639_K235 ([1]; 50 uM, in vitro) | isoTOP-ABPP reactivity ratio at lysine P13639_K318 ([1]; 50 uM, in vitro) | isoTOP-ABPP reactivity ratio at lysine P42345_K2066 ([2]; 50 uM, in vitro) | isoTOP-ABPP reactivity ratio at lysine Q6NUQ1_K771 [3] | isoTOP-ABPP reactivity ratio at lysine P12956_K351 [4] | isoTOP-ABPP reactivity ratio at lysine P52292_K459 [5] | isoTOP-ABPP reactivity ratio at lysine P17858_K677 [6] | isoTOP-ABPP reactivity ratio at lysine P17858_K715 [6] | other results |
| --- | --- | --- | --- | --- | --- | --- | --- | --- | --- |
| O=C(CCc1cn(-c2ccccc2)nc1-c1ccccc1)Oc1ccc([N+](=O)[O-])cc1[N+](=O)[O-] [fragment 29, 2,4-Dinitrophenyl 3-(1,3-diphenyl-1H-pyrazol-4-yl)propanoate] | 1.0 | 0.9 | 1.0 | 1.2 | 3.2 | 2.0 | 2.0 | 6.8 | isoTOP-ABPP reactivity ratio at lysine P17858_K315 [6]: 0.8 |
